Measured values reported in US20110190306A1, “Inhibitors of PLK” (CHROMA THERAPEUTICS LTD., priority 2008, published 2011).

System: HCT 116 cell line
Assay: Cell inhibition assay (WST-1 proliferation), HCT-116
Assay type: cell-based
Settings: Homo sapiens, 72 hrs incubation, read-out: Inhibitor Activity vs HCT 116 cell line
Protocol: Cells were seeded in 96W tissue culture plates (1 well=30 mm^2) in 50 μl of the appropriate culture medium (see below). Seeding densities were cell-line dependent: HCT-116=1000 cells per well, Hut-78=2250 cells per well, U937 cells=2000 cells per well. 24 hrs later 50 μL of the compound prepared in the same medium was added as 4 fold dilutions to give final concentrations in the range 0.15 nM-2500 nM (n=6 for each concentration). The plates were then incubated at 37° C., 5% CO2 for 72 hrs. Cell proliferation was assessed using WST-1 (a metabolic indicator dye, Roche Cat no. 1 644 807) according to the manufacturers instructions. The results were calculated as percentage of vehicle response and IC50 values represent the concentration of compound that inhibited the vehicle response by 50%.
HCT-116 Culture Medium—Dulbeccos MEM (Sigma D6546) plus 10% heat inactivated fetal calf serum (Hyclone SH30071 Thermo Fischer Scientific) containing 2 mM Glutamine (Sigma cat no G-7513) and 50 U/mL Penicillin and Streptomycin Sulphate (Sigma Cat no P-0781).

## CC[C@@H]1C(=O)N(C)c2cnc(Nc3ccc(C(=O)NC4CCN(CC[C@](C)(N)C(=O)OC)CC4)cc3OC)nc2N1C1CCCC1 [Example 1, Methyl 4-{4-[(4-{[(7R)-8-cyclopentyl-7-ethyl-5-methyl-6-oxo-5,6,7,8-tetrahydropteridin-2-yl]amino}-3-methoxybenzoyl)amino]piperidin-1-yl}isovalinate]
  IC50: 100 to 500 nM
